Laboratory results reported in patent US20090082453A1, “Exogenous Methyl Dihydrojasmonate for Prevention and Control of Biotic Attack in Plants” (NEW BIOLOGY, INC., priority 2007, published 2009).

Legend:
trypsin inhibitor = experiment: Activation of trypsin inhibitor in roses (Example 6); assay type: in vivo, white miniature roses (Parade Rose); conditions: 48 hours, FIG. 6; for proteinase (trypsin) inhibitor activity: 5.0 mM foliage spray plus root drench
Experimental: Potted plants of white miniature roses, marketed as Parade Rose® received one of three treatments. Roses were treated by (1) spraying the foliage of each plant to the point of drip to ensure maximum coverage; and (2) pouring 50 ml of the formulation into the soil within the root zone. There were three plants per treatment. 48 hours after treatment, all leaves from the entire plant were collected and pooled for analysis of trypsin inhibitor activity. Leaf extracts were prepared by adding 25 ml of 0.4 M sodium phosphate, pH 9, extraction buffer and 3 ml of 10% Triton® X-100 and grinding in a blender. The extract was filtered through four layers of cheesecloth. One milliliter of extract was spun at 2000×g for 15 minutes at 4-degrees and the resulting supernatant was frozen until the assay could be completed.
For the trypsin assay, rose extracts were thawed and replicates of 1, 2, and 3 μl for each extract were added to trypsin assay solution containing p-toluene-sulfonyl-L-arginine methyl ester (TAME) as the trypsin substrate. The level of trypsin activity was measured and reflects trypsin inhibition by trypsin inhibitor. Data is shown in FIG. 6, a graph of the results, and is presented as the mean and SEM of % remaining trypsin activity per gram fresh weight for 1, 2, and 3 μl. In FIG. 6, lower values represent greater trypsin inhibitor activity.

powdery mildew = experiment: Treatment and control of powdery mildew in roses (Example 10); assay type: in vivo, powdery mildew on 'Mr. Lincoln' roses; conditions: beyond disease levels measured prior to first treatment
Experimental: Outdoor potted roses of the cultivar ‘Mr. Lincoln’ were treated with 9 treatment samples (8 formulations and one untreated control). For each treatment sample, three plots having three plants each were treated for a total of 9 plants per treatment. Roses were treated every 2 weeks by spraying the foliage of each plant to the point of drip to ensure maximum coverage. Plants were initially evaluated for powdery mildew incidence and severity prior to the first treatment of the trial. […] Subsequent evaluations followed every 10 days for 2 months. Evaluations consisted of evaluating 60 individual leaves per plot (20 leaves were collected from 3 rose plants per plot) for disease incidence and severity. Disease incidence was determined by counting the number of leaves infected. Disease severity was determined as the percentage of leaf surface infected with the disease. Analysis of Variance was calculated for both severity and incidence. Table 11 below describes the mean number of leaves found to be infected with powdery mildew for each treatment group on respective evaluation days. […] FIG. 15 is a graph illustrating the percentage of leaves infected in each treatment group. In FIG. 15, the individual bars within each treatment represent successive evaluations on days 1, 11, 21, 31, 41, 52, and 62.

gene expression = conditions: tobacco plants; cited from earlier work
damping off disease = experiment: Observational decrease in disease in tomato seedlings (Example 8); assay type: in vivo; conditions: 1.5 mM MDHJ, 0.5% canola oil, 0.125% Triton X-100 foliar spray; 17th day after treatment
Experimental: FIG. 9 is a photograph of an untreated tomato seedling, illustrating the damping off disease on the leaves;
One group of tomato seedlings was treated with a formulation comprising 1.5 mM MDHJ, 0.5% canola oil, and 0.125% Triton® X-100 by spraying the foliage until the point of dripping. Another group of tomato seedlings was left untreated. Plants from each group were isolated in respective Plexiglas boxes. Photographs of the plants were taken on the 17th day after treatment. One plant in each treatment group had died.

Polyphenol Oxidase = experiment: Activation of polyphenol oxidase in field-grown roses (Example 4); assay type: in vivo, 'Julia Child' roses; conditions: FIG. 5; for PPO activity: 5 mM + 0.5% canola oil + 0.125% Triton X-100, 44 hours, caffeic acid substrate
Experimental: Field grown 1-year old ‘Julia Child’ roses were treated with foliar sprays of two different formulations. Roses were treated by spraying the foliage of each plant to the point of drip to ensure maximum coverage. There were three plants per treatment. 44 hours after application, 3 young leaves from each plant (each leaf from a different stem and all leaves at the same stage of development) were collected and pooled for analysis of PPO activity as in Example 2 above, except that 0.5 ml of ice cold extraction buffer were used, followed by addition of 160 μl 10% Triton® X-100. 50 μl of the supernatant was added to 1 ml of PPO assay buffer. The formulations are set forth in Table 5 below, and the data is shown FIG. 5, a graph of PPO activity for the two formulations and an untreated control. Data are reported as mean and SEM for each treatment.

Polyphenol Oxidase (PPO) = experiment: Polyphenol oxidase (PPO) induction in tomato plants (Example 2); assay type: in vivo; conditions: tomato seedlings, 1.5 mM + 0.5% canola oil + 0.125% Triton X-100, 24 hours; FIG. 2
Experimental: Three test samples were prepared using tomato seedlings. The descriptions of the treatments given to each test sample can be found in Table 3 below.
Liquid formulations were applied by spraying three squirts to the foliage with a spray bottle. Seedlings from each treatment were isolated in plastic boxes (i.e., as in Example 1, plants given the same treatment were isolated together). Polyphenol oxidase assays were carried out on the entire foliage of each plant 24 hours after application (Stout, M. J., Brovont, R. A., and Duffey, S. S., J. Chemical Ecology 24:6, pp. 946-963, the contents of which are incorporated by reference in their entirety).
The assay procedure was as follows. Tomato leaflets were weighed and ground in 1 ml of ice-cold extraction buffer (0.1M sodium phosphate buffer, pH 7, containing 3.5% polyvinylpolypyrolidine). Following grinding, 0.4 ml of 10% Triton® X-100 was added to the leaf homogenate, mixed and centrifuged for 15 minutes at 2000×g at 4-degrees. Fifteen microliters of the resulting supernatant was added to 1 ml of PPO Assay Buffer (2.92 mM caffeic acid in pH 7 sodium phosphate buffer) and the change in absorbance at A470 was recorded every minute for 10 minutes. Change in absorbance rate (OD A470/min/g protein) reflects the rate of formation of a compound produced by the activity of PPO. […]

[1] = test system: cell suspension cultures of E. californica; conditions: cited from earlier work
[2] = test system: proteinase inhibitor I and II; experiment: Proteinase inhibitor I and II induction in tomato seedlings, radial immunodiffusion assay, 24 h (Example 1); assay type: in vivo; conditions: 1.5 mM in water, FIG. 1
Experimental: Seven test samples or groups were prepared using two week old tomato seedlings. The descriptions of the treatments given to each test sample can be found in Table 2 below. Liquid formulations were applied by spraying three squirts to the foliage with a spray bottle. Eight plants per treatment (four pots per treatment, each pot containing two seedlings) were sprayed with each test formulation. Plants from each treatment were isolated in enclosed Plexiglas boxes and placed overnight in a light- and temperature-controlled growth chamber (i.e., plants given the same treatment were isolated together in a single Plexiglas box; plants given different treatments were in different boxes). Twenty-four hours after treatment, each plant was assayed for proteinase inhibitor I and II production by a radial immunodiffusion assay using anti-inhibitor antibodies (Ryan, C. A., Analytical Biochemistry 19 (1967), pp. 424-440, the contents of which are incorporated by reference in their entirety). [table] The results for each of the test samples are shown in FIG. 1, a graph in which proteinase inhibitor levels (PI-I and PI-II) are reported in micrograms of proteinase inhibitor per milliliter of leaf extract for each test sample. The two plants per pot were pooled to give one data point per pot (i.e., four data points total were collected per treatment).

aphids = experiment: Field study of aphid infestations in roses (Example 7); assay type: in vivo, aphids on 'Mr. Lincoln' roses; conditions: for concentration at which more efficacious against aphids: 1.5 mM vs 5 mM; for incidence of aphids on roses: foliar spray every 10-13 days, height of aphid pressure, FIGS. 7 and 8
Experimental: Potted roses of the cultivar ‘Mr. Lincoln’ were treated with 9 treatment samples (8 formulations and one untreated control). For each treatment sample, three plots having three plants each were treated, for a total of 9 plants per treatment. Roses were treated every 10-13 days by spraying the foliage of each plant to the point of drip to ensure maximum coverage. The plants were evaluated at approximately 10-day intervals for the number of aphids on each plant. Table 8 below includes the descriptions of the test formulations.
FIGS. 7 and 8 are two representations of the same data, taken at the height of aphid pressure. FIG. 7 is a histogram representing mean and SEM aphid counts on the roses with the various formulations. In FIG. 8, each data point represents the number of aphids on a single plant.

Structure (SMILES) | proteinase (trypsin) inhibitor activity (trypsin inhibitor) | enhancement of proteinase inhibitor activity compared with MJ (trypsin inhibitor; 5.0 mM) | progression of powdery mildew incidence (powdery mildew) | bioactivity relative to MJ (gene expression) | signs of disease in seedlings (damping off disease) | PPO activity (Polyphenol Oxidase) | elicitation of plant defenses (PPO) compared with MJ (Polyphenol Oxidase; field-grown roses, 5 mM, 44 hours) | activation of PPO (Polyphenol Oxidase (PPO)) | concentration inducing benzo[c]phenanthridine alkaloid synthesis [1] | concentration relative to MJ required for the same effect [1] | proteinase inhibitor level compared with wounding response [2] | concentration at which more efficacious against aphids (aphids) | incidence of aphids on roses (aphids)
CCCCCC1C(=O)CCC1CC(=O)OC (stereo not shown) [MDHJ, methyl dihydrojasmonate] | enhanced proteinase inhibitor activity | to a greater degree than MJ | similarly effective in slowing the progression of powdery mildew incidence | only a small fraction of the bioactivity of MJ | did not show signs of disease | increased PPO activity | equal to or better than the levels seen after MJ application | activate PPO | 10 µM | five times the concentration of MJ required to produce the same effect | much greater level than the plant's natural response to wounding | more efficacious at the lower concentration of 1.5 mM | reduced aphid counts
CC/C=C\CC1C(=O)CCC1CC(=O)OC (stereo not shown) [MJ, methyl jasmonate, reference compound] | enhanced proteinase inhibitor activity |  | similarly effective in slowing the progression of powdery mildew incidence |  |  | increased PPO activity |  |  |  |  | much greater level than the plant's natural response to wounding | more efficacious at the higher concentration of 5 mM | reduced aphid counts
